Test results: ChEMBL document CHEMBL1629695, “A novel polymyxin derivative that lacks the fatty acid tail and carries only three positive charges has strong synergism with agents excluded by the intact outer membrane” (Antimicrob Agents Chemother, 2010)
Converted amounts (≈) assume the structure as drawn. Bridge positions count the residues as written; N and C are the ends. Square brackets hold non-standard residues; d marks the D form. Peptide text beside a SMILES is read from it. * marks the point of attachment. Octanoyl = CCCCCCCC(=O)*; Dab = NCC[C@H](N)C(=O)O

Key:
Escherichia coli [1] = experiment: Antimicrobial activity against Escherichia coli IH3080 assessed as zone of inhibition at 10 ug after 18 hrs by disk diffusion method in presence of 1 ug/ml rifampin; format: functional
Pseudomonas aeruginosa [2] = experiment: Antimicrobial activity against Pseudomonas aeruginosa ATCC 27853 assessed as zone of inhibition at 10 ug after 18 hrs by disk diffusion method in presence of 1 ug/ml rifampin; format: functional
Acinetobacter baumannii [3] = experiment: Antimicrobial activity against Acinetobacter baumannii ATCC 19606 assessed as zone of inhibition at 10 ug after 18 hrs by disk diffusion method in presence of 1 ug/ml rifampin; format: functional
Acinetobacter baumannii [4] = experiment: Antimicrobial activity against Acinetobacter baumannii ATCC 19606 assessed as zone of inhibition at 10 ug after 18 hrs by disk diffusion method; format: functional
Pseudomonas aeruginosa [5] = experiment: Antimicrobial activity against Pseudomonas aeruginosa ATCC 27853 assessed as zone of inhibition at 10 ug after 18 hrs by disk diffusion method; format: functional
Escherichia coli [6] = experiment: Antimicrobial activity against Escherichia coli IH3080 assessed as zone of inhibition at 10 ug after 18 hrs by disk diffusion method; format: functional
[7] = Drug level in Sprague-Dawley rat urine at 1 mg/kg, iv; format: ADME, organism-based; design: dose 1 mg/kg, route intravenous; details: Sprague-Dawley, urine, read-out: Drug uptake
Enterobacter cloacae [8] = experiment: Ratio of MIC for Enterobacter cloacae ATCC 23355 to MIC for Enterobacter cloacae ATCC 23355 in presence of 4 ug/ml of NAB741; format: functional
Acinetobacter baumannii [9] = experiment: Antimicrobial activity against Acinetobacter baumannii ATCC 19606 by Etest method in presence of 4 ug/ml NAB741; format: functional
Acinetobacter baumannii [10] = experiment: Ratio of MIC for Acinetobacter baumannii ATCC 19606 to MIC for Acinetobacter baumannii ATCC 19606 in presence of 4 ug/ml of NAB741; format: functional
Escherichia coli [11] = experiment: Antimicrobial activity against Escherichia coli ATCC 25922 by Etest method in presence of 4 ug/ml NAB741; format: functional
Escherichia coli [12] = experiment: Antimicrobial activity against Escherichia coli IH3080 by Etest method in presence of 4 ug/ml NAB741; format: functional
Klebsiella pneumoniae [13] = experiment: Antimicrobial activity against Klebsiella pneumoniae ATCC 13883 by Etest method in presence of 4 ug/ml NAB741; format: functional
Escherichia coli [14] = experiment: Ratio of MIC for Escherichia coli ATCC 25922 to MIC for Escherichia coli ATCC 25922 in presence of 4 ug/ml of NAB741; format: functional
Klebsiella pneumoniae [15] = experiment: Ratio of MIC for Klebsiella pneumoniae ATCC 13883 to MIC for Klebsiella pneumoniae ATCC 13883 in presence of 4 ug/ml of NAB741; format: functional
Escherichia coli [16] = experiment: Ratio of MIC for Escherichia coli IH3080 to MIC for Escherichia coli IH3080 in presence of 4 ug/ml of NAB741; format: functional
Enterobacter cloacae [17] = experiment: Antimicrobial activity against Enterobacter cloacae ATCC 23355 by Etest method in presence of 4 ug/ml NAB741; format: functional
Escherichia coli [18] = experiment: Antimicrobial activity against in Escherichia coli ATCC 25922 in presence of NAB741; format: functional
Enterobacter cloacae [19] = experiment: Antimicrobial activity against Enterobacter cloacae ATCC 23355 by Etest method in presence of 2 ug/ml NAB741; format: functional
Escherichia coli [20] = experiment: Antimicrobial activity against Escherichia coli IH3080 by Etest method; format: functional
Escherichia coli [21] = experiment: Antimicrobial activity against in Escherichia coli IH3080 in presence of NAB741; format: functional
Klebsiella pneumoniae [22] = experiment: Antimicrobial activity against Klebsiella pneumoniae ATCC 13883 by Etest method in presence of 2 ug/ml NAB741; format: functional
Escherichia coli [23] = experiment: Antimicrobial activity against Escherichia coli ATCC 25922 by Etest method in presence of 2 ug/ml NAB741; format: functional
Escherichia coli [24] = experiment: Antimicrobial activity against Escherichia coli ATCC 25922 by Etest method; format: functional
Escherichia coli [25] = experiment: Antimicrobial activity against Escherichia coli ATCC 25922 in presence of 4 ug/ml NAB741; format: functional
Escherichia coli [26] = experiment: Antimicrobial activity against Escherichia coli ATCC 25922 in presence of […] ug/ml NAB741; format: functional
Acinetobacter baumannii [27] = experiment: Antimicrobial activity against in Acinetobacter baumannii ATCC 19606 in presence of NAB741; format: functional
Escherichia coli [28] = experiment: Antimicrobial activity against Escherichia coli ATCC 25922 in presence of 32 ug/ml NAB741; format: functional
Escherichia coli [29] = experiment: Antimicrobial activity against Escherichia coli IH3080 by Etest method in presence of 2 ug/ml NAB741; format: functional
Enterobacter cloacae [30] = experiment: Antimicrobial activity against Enterobacter cloacae ATCC 23355 by Etest method; format: functional
Enterobacter cloacae [31] = experiment: Antimicrobial activity against in Enterobacter cloacae ATCC 23355 in presence of NAB741; format: functional
Klebsiella pneumoniae [32] = experiment: Antimicrobial activity against Klebsiella pneumoniae ATCC 13883 by Etest method; format: functional
Acinetobacter baumannii [33] = experiment: Antimicrobial activity against Acinetobacter baumannii ATCC 19606 by Etest method; format: functional
Escherichia coli [34] = experiment: Antimicrobial activity against Escherichia coli ATCC 25922; format: functional
Acinetobacter baumannii [35] = experiment: Antimicrobial activity against Acinetobacter baumannii ATCC 19606 by Etest method in presence of 2 ug/ml NAB741; format: functional
Escherichia coli [36] = experiment: Antimicrobial activity against Escherichia coli ATCC 25922 in presence of 8 ug/ml NAB741; format: functional
Escherichia coli [37] = experiment: Antimicrobial activity against Escherichia coli ATCC 25922 in presence of 2 ug/ml NAB741; format: functional

Molecule	inhibition zone (IZ) (Escherichia coli [1])	inhibition zone (IZ) (Pseudomonas aeruginosa [2])	inhibition zone (IZ) (Acinetobacter baumannii [3])	inhibition zone (IZ) (Acinetobacter baumannii [4])	inhibition zone (IZ) (Pseudomonas aeruginosa [5])	inhibition zone (IZ) (Escherichia coli [6])	MIC (Acinetobacter baumannii [9])	MIC (Escherichia coli [11])	MIC (Escherichia coli [12])	MIC (Klebsiella pneumoniae [13])	MIC (Enterobacter cloacae [17])	also measured
CCCCCCCC(=O)N[C@H](C(=O)N[C@H](CO)C(=O)N[C@H]1CCNC(=O)[C@H]([C@@H](C)O)NC(=O)[C@H](CCN)NC(=O)[C@H](CCN)NC(=O)[C@H](CC(C)C)NC(=O)[C@@H](Cc2ccccc2)NC(=O)[C@H](CCN)NC1=O)[C@@H](C)O (Octanoyl-T[dS][Dab][Dab][dF]L[Dab][Dab]T; lactam 3-C) [listing 1 of 2 here]	212 mm2	87 mm2	395 mm2	161 mm2	81 mm2	170 mm2	–	–	–	–	–	–
CCCCCCCC(=O)N[C@H](C(=O)N[C@H](CO)C(=O)N[C@H]1CCNC(=O)[C@H]([C@@H](C)O)NC(=O)[C@H](CCN)NC(=O)[C@H](CCN)NC(=O)[C@H](CC(C)C)NC(=O)[C@@H](Cc2ccccc2)NC(=O)[C@H](CCN)NC1=O)[C@@H](C)O (Octanoyl-T[dS][Dab][Dab][dF]L[Dab][Dab]T; lactam 3-C) [listing 2 of 2 here]	–	–	–	–	–	–	–	–	–	–	–	dose excreted [7]: 19.4%
CC[C@H]1OC(=O)[C@H](C)[C@@H](O[C@H]2C[C@@](C)(OC)[C@@H](O)[C@H](C)O2)[C@H](C)[C@@H](O[C@@H]2O[C@H](C)C[C@H](N(C)C)[C@H]2O)[C@](C)(O)C[C@@H](C)CN(C)[C@H](C)[C@@H](O)[C@]1(C)O [AZITHROMYCIN]	–	–	–	–	–	–	1.5 µg/mL	0.125 µg/mL	0.094 µg/mL	0.125 µg/mL	0.25 µg/mL	Ratio (Enterobacter cloacae [8]): 16; Ratio (Acinetobacter baumannii [10]): 21; Ratio (Escherichia coli [14]): 16; Ratio (Klebsiella pneumoniae [15]): 11; Ratio (Escherichia coli [16]): 8
POLYMYXIN B	133 mm2	166 mm2	202 mm2	185 mm2	151 mm2	129 mm2	–	–	–	–	–	–
CN[C@H](CC(C)C)C(=O)N[C@H]1C(=O)N[C@@H](CC(N)=O)C(=O)N[C@H]2C(=O)N[C@H]3C(=O)N[C@H](C(=O)N[C@H](C(=O)O)c4cc(O)cc(O)c4-c4cc3ccc4O)[C@H](O)c3ccc(c(Cl)c3)Oc3cc2cc(c3O[C@@H]2O[C@H](CO)[C@@H](O)[C@H](O)[C@H]2O[C@H]2C[C@](C)(N)[C@H](O)[C@H](C)O2)Oc2ccc(cc2Cl)[C@H]1O [VANCOMYCIN]	–	–	–	–	–	–	24 µg/mL	8 µg/mL	16 µg/mL	128 µg/mL	1.5 µg/mL	Ratio (Enterobacter cloacae [8]): >170; Ratio (Acinetobacter baumannii [10]): >11; Ratio (Escherichia coli [14]): >32; Ratio (Klebsiella pneumoniae [15]): >2; Ratio (Escherichia coli [16]): >16
CO[C@H]1/C=C/O[C@@]2(C)Oc3c(C)c(O)c4c(O)c(c(/C=N/N5CCN(C)CC5)c(O)c4c3C2=O)NC(=O)/C(C)=C\C=C\[C@H](C)[C@H](O)[C@@H](C)[C@@H](O)[C@@H](C)[C@H](OC(C)=O)[C@@H]1C [RIFAMPIN]	–	–	–	–	–	–	0.094 µg/mL	0.016 µg/mL	0.047 µg/mL	0.5 µg/mL	0.016 µg/mL	fractional inhibitory concentration index (FICI) (Escherichia coli [18]): 0.126; MIC (Enterobacter cloacae [19]): 1.5 µg/mL; MIC (Escherichia coli [20]): 4 µg/mL (≈ 4.86 µM); fractional inhibitory concentration index (FICI) (Escherichia coli [21]): 0.111; MIC (Klebsiella pneumoniae [22]): 1 µg/mL; MIC (Escherichia coli [23]): 0.64 µg/mL; MIC (Escherichia coli [24]): 4 µg/mL (≈ 4.86 µM); MIC (Escherichia coli [25]): 1 µg/mL; MIC (Escherichia coli [26]): 0.063 µg/mL; fractional inhibitory concentration index (FICI) (Acinetobacter baumannii [27]): 0.131; MIC (Escherichia coli [28]): 0.031 µg/mL; MIC (Escherichia coli [29]): 0.19 µg/mL; MIC (Enterobacter cloacae [30]): 6 µg/mL (≈ 7.29 µM); fractional inhibitory concentration index (FICI) (Enterobacter cloacae [31]): 0.126; MIC (Klebsiella pneumoniae [32]): 12 µg/mL (≈ 14.6 µM); MIC (Acinetobacter baumannii [33]): 1.5 µg/mL (≈ 1.82 µM); MIC (Escherichia coli [34]): 8 µg/mL (≈ 9.72 µM); MIC (Acinetobacter baumannii [35]): 0.19 µg/mL; MIC (Escherichia coli [36]): 0.25 µg/mL; MIC (Escherichia coli [37]): 4 µg/mL
CC(C)C[C@@H]1NC(=O)[C@@H](Cc2ccccc2)NC(=O)[C@H](CCN)NC(=O)[C@@H](NC(=O)[C@H](CCN)NC(=O)[C@@H](N)[C@@H](C)O)CCNC(=O)[C@H]([C@@H](C)O)NC(=O)[C@H](CCN)NC(=O)[C@H](CCN)NC1=O [POLYMYXIN B NONAPEPTIDE] (H-T[Dab][Dab][Dab][dF]L[Dab][Dab]T; lactam 3-C)	143 mm2	169 mm2	155 mm2	3 mm2	144 mm2	3 mm2	–	–	–	–	–	–
